Values after ≈ are worked out from the molar mass of the structure shown. Read-outs that look alike come from different tables or passages of the source.
Key:
[1] = test system: MRSA; experiment: Lipid II supplementation rescue of MRSA growth; assay type: cell-based, Staphylococcus aureus; details: lethal concentrations of antibiotic, with lipid II in the media
Excerpt: (§1) FIGS. 21A-21D show (FIG. 21A) SYTOX Green fluorescence assay for antibiotic-induced bacterial membrane permeability. Vancomycin was used as a negative control, and daptomycin was used as a positive control. Error bars represent the standard error of the mean across 3 biological replicates. […] Vancomycin was used as a positive control. The UDP-MurNAc-pentapeptide was identified by mass spectrometry, with an [M+H]^+ of 1150.3590. Error bars represent the standard deviation of three biological replicates. […] Lipid II cannot rescue bacteria grown in the presence of ciprofloxacin (an inhibitor of DNA replication). Data from three biological replicates are shown. […] Vancomycin was used as a positive control. Lipid II was boiled to remove the lipid tail, and de-lipidated lipid II was quantified by mass spectrometry, with an [M+H]^+ of 1331.5362. Error bars represent the standard deviation of three biological replicates.
Lipid II is a crucial peptidoglycan building block downstream of UDP-MurNAc-pentapeptide and is the target of several antibiotics, including vancomycin. Bacteria were grown in the presence of lethal concentrations of antibiotics with and without supplementation of lipid II into the media. […] These lipids are the targets of numerous antibiotics. Compounds that bind to lipid II are known to result in its accumulation in cells, while compounds that bind to C55-P or C55-PP result in a reduction in lipid II levels. […] The lipid tail of lipid II can be removed by boiling in acidic conditions, allowing quantification by LC-MS. Following this protocol, an accumulation of a mass matching de-lipidated lipid II when bacteria were treated with either compounds of Formula I or vancomycin (FIG. 21D) was observed. The identity of this molecule was confirmed by tandem mass spectrometry and compared to published fragmentation data. Without being bound by theory, it is believed that compounds of Formula I target the bacterial cell wall by binding to lipid II and preventing its polymerization and cross-linking into peptidoglycan.

[2] = test system: MRSA; details: after 30 days, identical conditions
Excerpt: Fold change in MIC for one culture grown in the presence of sub-inhibitory levels of ciprofloxacin for 30 days is shown as a positive control.
An attempt to culture MRSA mutants resistant to compounds of Formula I was made by subculturing two independent cultures of bacteria continuously in the presence of non-lethal concentrations of 5.

[3] = test system: methicillin-resistant Staphylococcus aureus (MRSA); experiment: Growth inhibition assay, minimum inhibitory concentration against MRSA; assay type: cell-based; details: for MIC: Staphylococcus aureus
Method: (§2) Growth Inhibition Assays. Compounds were prepared in DMSO to a concentration of 10 mM. DMSO was used as a vehicle negative control, and vancomycin (MRSA) and ampicillin (VRE) were also prepared as positive controls for minimum inhibitory concentration (MIC) tests. Compounds were tested for antimicrobial activity against MRSA and VRE at 100, 50, 25, 12.5, 6.25, 3.13, 1.56, 0.78, and 0.39 μM. MRSA was grown in tryptic soy broth and VRE was grown in brain heart infusion medium. Overnight cultures of bacteria were diluted to OD600=0.1 and 50 μL of cell culture broth was added to each well. Media (50 μL) containing compound at the appropriate concentration was then added to the cell cultures and the plates were sealed and incubated at 37° C. overnight. Plates were then read for OD600 using a PerkinElmer Envision 2100 multimode plate reader (PerkinElmer, Waltham, MA, USA). […] All samples were tested in triplicate.
(§3) Determination of Minimum Inhibitory Concentration. All compounds were freshly dissolved in DMSO at a stock solution of 10 mM. DMSO (solvent vehicle) was used as a negative control and vancomycin and ampicillin were used as positive controls for MRSA and VRE, respectively. Compounds were dispensed into 96-well plates at 100, 50, 25, 12.5, 6.25, 3.13, 1.56, 0.78, and 0.39 μM. Overnight cultures of MRSA grown in tryptic soy broth and VRE grown in brain heart infusion medium were diluted to OD600 of 0.1, and 50 μL of fresh cell culture broth was added to each well. The plates were sealed and incubated at 37° C. overnight. Plates were then monitored for OD600 using a PerkinElmer Envision 2100 multimode plate reader (PerkinElmer, Waltham, MA, USA).

[4] = test system: vancomycin-resistant Enterococcus faecalis (VRE); experiment: Growth inhibition assay, minimum inhibitory concentration against VRE; assay type: cell-based
Method: as §2, §3

[5] = test system: lipid II in MRSA; experiment: Accumulation of lipid II in MRSA, LC-MS of de-lipidated lipid II; assay type: cell-based, Staphylococcus aureus; details: compared to DMSO
Excerpt: as §1
Lipid II is a crucial peptidoglycan building block downstream of UDP-MurNAc-pentapeptide and is the target of several antibiotics, including vancomycin. Bacteria were grown in the presence of lethal concentrations of antibiotics with and without supplementation of lipid II into the media. […] These lipids are the targets of numerous antibiotics. […] The lipid tail of lipid II can be removed by boiling in acidic conditions, allowing quantification by LC-MS. […]

[6] = test system: UDP-MurNAc-pentapeptide in MRSA; experiment: Accumulation of cell wall precursor UDP-MurNAc-pentapeptide in MRSA; assay type: cell-based, Staphylococcus aureus; details: compared to DMSO
Excerpt: (§4) FIGS. 21A-21D show (FIG. 21A) SYTOX Green fluorescence assay for antibiotic-induced bacterial membrane permeability. Vancomycin was used as a negative control, and daptomycin was used as a positive control. Error bars represent the standard error of the mean across 3 biological replicates. […] Vancomycin was used as a positive control. […] Error bars represent the standard deviation of three biological replicates. […] Data from three biological replicates are shown. […] Vancomycin was used as a positive control. […] Error bars represent the standard deviation of three biological replicates.
(§5) The effects of compounds of Formula I on the bacterial cell wall were thus investigated. […] The effects of compounds of Formula I on cell wall biosynthesis was investigated by looking for accumulation of the cell wall precursor molecule UDP-MurNAc-pentapeptide (FIG. 21B).

[7] = test system: MRSA; experiment: SYTOX Green fluorescence assay for bacterial membrane permeability; assay type: cell-based, Staphylococcus aureus
Excerpt: as §4, §5

[8] = Table 6, read-out: Minimal inhibitory concentrations, S. aureus (methicillin resistant)
[9] = Enterococcus faecalis, Table 6, read-out: Minimal inhibitory concentrations, E. faecalis (vancomycin resistant)

O=C(O)c1cn(C2CC2)c2cc(N3CCNCC3)c(F)cc2c1=O [ciprofloxacin]
restoration of MRSA growth by lipid II supplementation [1]: not able to rescue bacterial growth | increase in MIC [2]: approximately 37 fold

CC(C)c1c(O)cc(/C=C/c2ccccc2)cc1O [compound 1, tapinarof, reference compound]
MIC [3, 8]: 27 µM (≈ 6.87 µg/mL) | MIC ([3]; read-out: MIC): 27 µM (≈ 6.87 µg/mL) | MIC [4, 9]: 51 µM (≈ 13 µg/mL) | MIC ([4]; read-out: MIC): 50.5 µM (≈ 12.8 µg/mL)

CC(C)c1c(O)cc(C2OC2c2ccccc2)cc1O (stereo not drawn) [compound 2, stilbene epoxide, reference compound]
antibiotic activity against MRSA (in words) [3]: little to no activity | antibiotic activity against VRE (in words) [4]: little to no activity

CC(C)C1=C(O)C(=O)C(/C=C/c2ccccc2)=C(c2c(/C=C/c3ccccc3)cc(O)c(C(C)C)c2O)C1=O [compound 5, duotap-520]
restoration of MRSA growth by lipid II supplementation [1]: restore growth | accumulation of lipid II (de-lipidated lipid II) [5]: Accumulation | level of UDP-MurNAc-pentapeptide [6]: Accumulation

Oc1cc(O)cc(/C=C/c2ccccc2)c1 [compound 6, pinosylvin, reference compound]
MIC [3, 8]: > 100 µM | MIC [4, 9]: > 100 µM

Oc1ccc(C=Cc2cc(O)cc(O)c2)cc1 [compound 7, resveratrol, reference compound]
MIC [3, 8]: 25 µM (≈ 5.71 µg/mL) | MIC [4, 9]: 14 µM (≈ 3.2 µg/mL)

O=C1C=C(O)C(=O)C(/C=C/c2ccccc2)=C1c1c(O)cc(O)cc1/C=C/c1ccccc1 [compound 8, duotap-436]
antibiotic activity against MRSA (in words) [3]: significantly enhanced antibiotic activity compared to 6 | MIC [3, 8]: 4 µM (≈ 1.75 µg/mL) | activity against VRE [4]: 6 µg/mL | antibiotic activity against VRE (in words) [4]: significantly enhanced antibiotic activity compared to 6 | MIC [4, 9]: 6 µM (≈ 2.62 µg/mL)

O=C1C=C(O)C(=O)C(/C=C/c2ccc(O)cc2)=C1c1c(O)cc(O)cc1/C=C/c1ccc(O)cc1 [compound 9, duotap-468]
antibiotic activity against MRSA (in words) [3]: no enhancement of activity | MIC [3, 8]: > 100 µM | antibiotic activity against VRE (in words) [4]: no enhancement of activity | MIC [4, 9]: > 100 µM

CCCCCCCCCC(=O)N[C@@H](Cc1c[nH]c2ccccc12)C(=O)N[C@H](CC(N)=O)C(=O)N[C@@H](CC(=O)O)C(=O)N[C@@H]1C(=O)NCC(=O)N[C@@H](CCCN)C(=O)N[C@@H](CC(=O)O)C(=O)N[C@H](C)C(=O)N[C@@H](CC(=O)O)C(=O)NCC(=O)N[C@H](CO)C(=O)N[C@@H]([C@H](C)CC(=O)O)C(=O)N[C@@H](CC(=O)c2ccccc2N)C(=O)O[C@@H]1C [daptomycin]
membrane permeability [7]: increase in membrane permeability

CN[C@H](CC(C)C)C(=O)N[C@H]1C(=O)N[C@@H](CC(N)=O)C(=O)N[C@H]2C(=O)N[C@H]3C(=O)N[C@H](C(=O)N[C@H](C(=O)O)c4cc(O)cc(O)c4-c4cc3ccc4O)[C@H](O)c3ccc(c(Cl)c3)Oc3cc2cc(c3O[C@@H]2O[C@H](CO)[C@@H](O)[C@H](O)[C@H]2O[C@H]2C[C@](C)(N)[C@H](O)[C@H](C)O2)Oc2ccc(cc2Cl)[C@H]1O [vancomycin, reference compound]
restoration of MRSA growth by lipid II supplementation [1]: restored MRSA growth to antibiotic-free levels | accumulation of lipid II (de-lipidated lipid II) [5]: accumulation | level of UDP-MurNAc-pentapeptide [6]: significant increase

lumiquinone A [compound 3, reference compound]
antibiotic activity against MRSA (in words) [3]: little to no activity | antibiotic activity against VRE (in words) [4]: little to no activity

— US12286398B2, “Anti-bacterial stilbene derivatives and methods of use” (YALE UNIVERSITY, priority 2019, dated 2025)
